Test results taken from PubChem BioAssay (NCI).
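Briefly, cells in 96-well plates were exposed to five compound concentrations for 48 h, and endpoints were estimated by linear interpolation. Abbreviation: GI50, concentration required for 50% inhibition of growth. The concentration for full growth arrest is given as TGI.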

Key:
Assay in all cases: NCI tumour cell line growth inhibition, 48 h
MDA-MB-435 = tested on: MDA-MB-435
U251 CNS = tested on: U251 CNS
RPMI-8226 leukemia = tested on: RPMI-8226 leukemia
MOLT-4 leukemia = tested on: MOLT-4 leukemia
MCF7 breast = tested on: MCF7 breast
EKVX NSCLC = tested on: EKVX NSCLC
NCI-H226 lung = tested on: NCI-H226 lung
CCRF-CEM leukemia = tested on: CCRF-CEM leukemia
HOP-62 NSCLC = tested on: HOP-62 NSCLC
NCI-H522 lung = tested on: NCI-H522 lung
HCT-15 colon = tested on: HCT-15 colon
PC-3 prostate = tested on: PC-3 prostate
SK-OV-3 ovarian = tested on: SK-OV-3 ovarian
NCI-H460 lung = tested on: NCI-H460 lung
COLO 205 colon = tested on: COLO 205 colon
A498 renal = tested on: A498 renal
CAKI-1 renal = tested on: CAKI-1 renal
MALME-3M melanoma = tested on: MALME-3M melanoma
MDA-MB-231 breast = tested on: MDA-MB-231 breast
UACC-257 melanoma = tested on: UACC-257 melanoma
TK-10 renal = tested on: TK-10 renal
RXF 393 renal = tested on: RXF 393 renal
SF-295 CNS = tested on: SF-295 CNS
SK-MEL-28 melanoma = tested on: SK-MEL-28 melanoma
SNB-19 CNS = tested on: SNB-19 CNS
DU-145 prostate = tested on: DU-145 prostate
NCI-H23 lung = tested on: NCI-H23 lung
A549 NSCLC = tested on: A549 NSCLC
SK-MEL-2 melanoma = tested on: SK-MEL-2 melanoma
BT-549 breast = tested on: BT-549 breast
HCT-116 colon = tested on: HCT-116 colon
LOX IMVI melanoma = tested on: LOX IMVI melanoma
OVCAR-3 ovarian = tested on: OVCAR-3 ovarian
SF-268 CNS = tested on: SF-268 CNS
UO-31 renal = tested on: UO-31 renal
SN12C renal = tested on: SN12C renal
ACHN renal = tested on: ACHN renal
HOP-92 NSCLC = tested on: HOP-92 NSCLC
NCI/ADR-RES ovarian = tested on: NCI/ADR-RES ovarian
SNB-75 CNS = tested on: SNB-75 CNS
HL-60(TB) leukemia = tested on: HL-60(TB) leukemia
KM12 colon = tested on: KM12 colon
UACC-62 melanoma = tested on: UACC-62 melanoma
OVCAR-4 ovarian = tested on: OVCAR-4 ovarian
OVCAR-8 ovarian = tested on: OVCAR-8 ovarian
SF-539 CNS = tested on: SF-539 CNS
T-47D breast = tested on: T-47D breast
OVCAR-5 ovarian = tested on: OVCAR-5 ovarian
IGROV1 ovarian = tested on: IGROV1 ovarian
HCC-2998 colon = tested on: HCC-2998 colon
M14 melanoma = tested on: M14 melanoma
K-562 leukemia = tested on: K-562 leukemia
HS 578T breast = tested on: HS 578T breast
SR leukemia = tested on: SR leukemia
786-0 renal = tested on: 786-0 renal
SW-620 colon = tested on: SW-620 colon
HT29 colon = tested on: HT29 colon
SK-MEL-5 melanoma = tested on: SK-MEL-5 melanoma

CC(=O)OCC(=O)C1(O)C(C)CC2C3C=C(C)C4=Cc5c(cnn5-c5ccccc5)CC4(C)C3C(O)CC21C (configuration not stated)
GI50 (MDA-MB-435): 2330 nM | TGI (MDA-MB-435): 7330 nM | GI50 (U251 CNS): 1000 nM | TGI (U251 CNS): 3770 nM | GI50 (RPMI-8226 leukemia): < 34.5 nM | GI50 (MOLT-4 leukemia): 753 nM | TGI (MOLT-4 leukemia): > 22000 nM | GI50 (MCF7 breast): 1470 nM | TGI (MCF7 breast): 5220 nM | GI50 (EKVX NSCLC): 1480 nM | TGI (EKVX NSCLC): 13100 nM | GI50 (NCI-H226 lung): 2160 nM | TGI (NCI-H226 lung): 11200 nM | TGI (CCRF-CEM leukemia): > 100000 nM | GI50 (HOP-62 NSCLC): 1350 nM | TGI (HOP-62 NSCLC): 3520 nM | GI50 (NCI-H522 lung): 1970 nM | TGI (NCI-H522 lung): 5240 nM | GI50 (HCT-15 colon): 1150 nM | TGI (HCT-15 colon): 2540 nM | GI50 (PC-3 prostate): 1690 nM | TGI (PC-3 prostate): 5830 nM | TGI (SK-OV-3 ovarian): 5710 nM | GI50 (NCI-H460 lung): 1430 nM | TGI (NCI-H460 lung): 3240 nM | GI50 (COLO 205 colon): 1720 nM | TGI (COLO 205 colon): 3260 nM | GI50 (A498 renal): 1400 nM | TGI (A498 renal): 3940 nM | GI50 (CAKI-1 renal): 2350 nM | TGI (CAKI-1 renal): 10100 nM | GI50 (MALME-3M melanoma): 1500 nM | TGI (MALME-3M melanoma): 5200 nM | GI50 (MDA-MB-231 breast): 1850 nM | TGI (MDA-MB-231 breast): 4340 nM | GI50 (UACC-257 melanoma): 2960 nM | TGI (UACC-257 melanoma): 12200 nM | GI50 (TK-10 renal): 2130 nM | TGI (TK-10 renal): 9730 nM | GI50 (RXF 393 renal): 781 nM | TGI (RXF 393 renal): 2390 nM | GI50 (SF-295 CNS): 624 nM | TGI (SF-295 CNS): 2630 nM | GI50 (SK-MEL-28 melanoma): 1410 nM | TGI (SK-MEL-28 melanoma): 3010 nM | GI50 (SNB-19 CNS): 2310 nM | TGI (SNB-19 CNS): 11900 nM | GI50 (DU-145 prostate): 1930 nM | TGI (DU-145 prostate): 5740 nM | GI50 (NCI-H23 lung): 2200 nM | TGI (NCI-H23 lung): 5780 nM | GI50 (A549 NSCLC): 1340 nM | TGI (A549 NSCLC): 13500 nM | GI50 (SK-MEL-2 melanoma): 1660 nM | TGI (SK-MEL-2 melanoma): 3850 nM | GI50 (BT-549 breast): 1250 nM | TGI (BT-549 breast): 3850 nM | GI50 (HCT-116 colon): 1450 nM | TGI (HCT-116 colon): 3120 nM | GI50 (LOX IMVI melanoma): 1690 nM | TGI (LOX IMVI melanoma): 4820 nM | GI50 (OVCAR-3 ovarian): 1670 nM | TGI (OVCAR-3 ovarian): 3960 nM | GI50 (SF-268 CNS): 1640 nM | TGI (SF-268 CNS): 11400 nM | GI50 (UO-31 renal): 2470 nM | TGI (UO-31 renal): 8430 nM | TGI (SN12C renal): 9860 nM | GI50 (ACHN renal): 2160 nM | TGI (ACHN renal): 9030 nM | GI50 (HOP-92 NSCLC): 26.1 nM | TGI (HOP-92 NSCLC): 7390 nM | GI50 (NCI/ADR-RES ovarian): 1940 nM | TGI (NCI/ADR-RES ovarian): 8730 nM | GI50 (SNB-75 CNS): 1890 nM | TGI (SNB-75 CNS): 5920 nM | GI50 (HL-60(TB) leukemia): 2440 nM | TGI (HL-60(TB) leukemia): 9740 nM | GI50 (KM12 colon): 1320 nM | TGI (KM12 colon): 2780 nM | GI50 (UACC-62 melanoma): 1770 nM | TGI (UACC-62 melanoma): 3800 nM | GI50 (OVCAR-4 ovarian): 2290 nM | TGI (OVCAR-4 ovarian): 20000 nM | GI50 (OVCAR-8 ovarian): 2460 nM | TGI (OVCAR-8 ovarian): 25500 nM | GI50 (SF-539 CNS): 439 nM | TGI (SF-539 CNS): 2410 nM | GI50 (T-47D breast): 2630 nM | TGI (T-47D breast): 9390 nM | GI50 (OVCAR-5 ovarian): 1100 nM | TGI (OVCAR-5 ovarian): 3920 nM | GI50 (IGROV1 ovarian): 1990 nM | TGI (IGROV1 ovarian): 6480 nM | GI50 (HCC-2998 colon): 1920 nM | TGI (HCC-2998 colon): 3660 nM | GI50 (M14 melanoma): 1760 nM | TGI (M14 melanoma): 3690 nM | GI50 (K-562 leukemia): 500 nM | TGI (K-562 leukemia): > 100000 nM | GI50 (HS 578T breast): 1170 nM | TGI (HS 578T breast): 4750 nM | GI50 (SR leukemia): 1630 nM | TGI (SR leukemia): > 27200 nM | GI50 (786-0 renal): 1490 nM | TGI (786-0 renal): 3220 nM | GI50 (SW-620 colon): 1700 nM | TGI (SW-620 colon): 3420 nM | GI50 (HT29 colon): 971 nM | TGI (HT29 colon): 2420 nM | GI50 (SK-MEL-5 melanoma): 1450 nM | TGI (SK-MEL-5 melanoma): 2870 nM
